Common to all, as to assay type: cell-based, human
The test system of assay [1] is NKX2-1+ lung epithelial progenitor cells. The assay is described as follows: SFTPCtdTomato reporter induction in day 15 NKX2-1+ progenitor outgrowth in 3D culture (flow cytometry). As for the experimental part: Purification of NKX2-1+ Lung Progenitors by Cell Sorting. On day 15 of differentiation, cells were incubated at 37° C. in 0.05% trypsin-EDTA (Invitrogen) for 7-15 minutes, until they reached single cell suspension. Cells were then washed in media containing 10% fetal bovine serum (FBS, ThermoFisher), centrifuged at 300g×5 minutes, and resuspended in sort buffer containing Hank's Balanced Salt Solution (ThermoFisher), 2% FBS, 10 μM Y-27632, and 10 uM calcein blue AM (Life Technologies) for dead cell exclusion. Cells not containing the NKX2-1GFP reporter were subsequently stained with CD47-PerCPCy5.5 and CD26-PE antibodies (mouse monoclonal; Biolegend 1:200; 1×10^6 cells in 100 ul) for 30 minutes at 4° C., washed with PBS, and resuspended in sort buffer. Cells were passed through a 40 um strainer prior to sorting (Falcon). Various live cell populations indicated in the text (i.e. GFP+, GFP−, CD47hi/CD26−,CD47lo) were sorted on a high-speed cell sorter (MoFlo Legacy). Directed Differentiation of NKX2-1+ Lung Progenitor Outgrowth into iAEC2s Day 15 cells, either sorted (as described above) or unsorted (dissociated as described above), were resuspended in undiluted growth factor-reduced matrigel (Corning) at a dilution of 50-100 cells/ul, with droplets ranging in size from 20 ul in 96 well plates to 1 ml in 10 cm tissue culture-treated dishes (Corning). Cells in matrigel suspension were incubated at 37° C. for 20-30 minutes, then warm media was added to the plates. […]
Alveolosphere Long Term Culture, Dissociation, and Differentiation. […] These spheres were analyzed as follows: Z-stack images of live alveolospheres were taken and processed on a Keyence (Osaka, Japan) BZ-X700 fluorescence microscope. […] To generate single cell suspensions, cell pellets were incubated in 0.05% trypsin and continued through the trypsin-based dissociation protocol described above, after which they could be passaged into fresh matrigel, analyzed by flow cytometry, or sorted as described above. […]
(In general: Flow cytometry measures light scatter and fluorescence of single cells or particles in a stream.)

Another assay concerns TNFa/NFkB pathway. The assay is described as follows: Cytokine stimulation of PSC-derived alveolospheres, TNFa/NFkB pathway (Western blot IkB, IL8 and GM-CSF RT-qPCR). The conditions noted are these: TNFa 10 ng/ml and IL1b 10 ng/ml given together. On the procedure:
(§1) Where indicated in the text, outgrowth and distal/alveolar differentiation of cells after day 15 was performed in “CK+DCI” medium, consisting of cSFDM base, with 3 μM CHIR99021, 10 ng/mL rhKGF, and 50 nM dexamethasone (Sigma), 0.1 mM 8-Bromoadenosine 3′,5′-cyclic monophosphate sodium salt (Sigma) and 0.1 mM 3-Isobutyl-1-methylxanthine (IBMX) (Sigma) (DCI). Immediately after replating cells on Day 15 10 μM Y-27632 was added to the medium for 24 hours. Additional growth factors or cytokines were added or withdrawn as indicated in the text, including FGF10, TGFb, EGF, OSM (20 ng/ml), TNFa (10 ng/ml), and IL-1b (10 ng/ml) with other concentrations listed in figure legends (FIGS. 9A, 9B).
Reverse Transcriptase Quantitative Real Time Polymerase Chain Reaction (RT-qPCR). RT-qPCR was performed as previously described (Hawkins et al. 2017,). Briefly, RNA was isolated according to manufacturer's instructions using the Qiagen miRNeasy mini kit (Qiagen, Venlo, Netherlands). cDNA was generated by reverse transcription of up to 150 ng RNA from each sample using the Applied Biosystems High-Capacity cDNA Reverse Transcription Kit. […] Relative gene expression was calculated based on the average cycle (Ct) value of the technical triplicates, normalized to 18S control, and reported as fold change (2(−ΔΔCT)), with a fold change of 1 being assigned to undifferentiated (day 0) iPSCs or ESCs. […]
On the technique in general: In western blotting, separated proteins are transferred to a membrane and probed.

Assay [2] deals with BU3 NKX2-1GFP+/SFTPCtdTomato- population. The assay is described as follows: Late CHIR withdrawal from sorted NKX2-1GFP+/SFTPCtdTomato- population in 3D culture. The conditions noted are these: CHIR withdrawn for 10 days (days 40-50), cells sorted day 38. On the procedure: as §1
(§2) Alveolosphere Long Term Culture, Dissociation, and Differentiation. Alveolospheres developed in 3D matrigel culture outgrowths within 3-7 days after day 15 replating, and were maintained in CK+DCI media for weeks to months, as indicated in the text. These spheres were analyzed as follows: Z-stack images of live alveolospheres were taken and processed on a Keyence (Osaka, Japan) BZ-X700 fluorescence microscope. […] To generate single cell suspensions, cell pellets were incubated in 0.05% trypsin and continued through the trypsin-based dissociation protocol described above, after which they could be passaged into fresh matrigel, analyzed by flow cytometry, or sorted as described above. […]

The next assay has as its system RUES2 alveolospheres. The assay is described as follows: CHIR addback after 1-week withdrawal in alveolospheres. The conditions noted are these: CHIR withdrawn week 4-5, added back week 5-6. As for the experimental part:
as §1, §2

For the compound “EGF: Recombinant mouse EGF (NSYPGCPSSYDGYCLNGGVCMHIESLDSYTCNCVIGYSGDRCQTRDLRWWELR; UniProt P01132 977-1029, looked up)”, the “further SFTPC induction efficiency with addition of the factor” value in assay [1] (factor added to differentiation media, FIG. 9B) was “No consistent further SFTPC induction efficiency”.

Consider IL1b: Recombinant human IL1-b, for which the “NFkB signaling (IkB protein decrease, IL8 and GM-CSF expression)” value in the assay on TNFa/NFkB pathway is recorded as “activated NFkB signaling”.

For the compound `Cc1c[nH]c(-c2cnc(NCCNc3ccc(C#N)cn3)nc2-c2ccc(Cl)cc2Cl)n1` [CHIR, CHIR99021, reference compound], the “emergence of SFTPC+ cells from NKX2-1+ precursors in presence of Wnt stimulation via CHIR” value in assay [1] (17-22 total differentiation days) lay in the range of 2 to 7 days. The “cells with induction of the SFTPCtdTomato reporter” value in assay [1] (sorted NKX2-1GFP+ cells, by day 21, presence of CHIR in K+DCI base media) is on record as 7.17+/−0.89%. For the same compound, in assay [2], the “efficiency of differentiation into SFTPC+ progeny after withdrawal of CHIR” value is given as 68.7%. Further, in the assay with RUES2 alveolospheres, the “effect of re-exposure to CHIR after 1-week withdrawal” value was “maintained expression of the SFTPCtdTomato reporter and increased proliferation”.

With TNFa, in the assay with TNFa/NFkB pathway, the “NFkB signaling (IkB protein decrease, IL8 and GM-CSF expression)” value is on record as “activated NFkB signaling”.

For the origin of these results see US10975357B2, “Methods and compositions related to differentiated lung cells” (TRUSTEES OF BOSTON UNIVERSITY, priority 2017, dated 2021).
